Data on one compound can be found in patent US7659081B2, “Determination of AM-binding proteins and the association of adrenomedullin (AM) therewith” (The United States of America as represented by the …, priority 1999, dated 2010).

In one assay the target is T1, AMBP-1 (factor H) (Homo sapiens, UniProt P08603).
T1 construct: Total proteins derived from human plasma (2 μl) were electrophoretically fractionated; from tissue; host or cells: human plasma
The assay can be described thus: Ligand blot competition of labeled AM binding to plasma AMBP-1. The following applies: 7 μM unlabeled peptide, preincubation 6 hr at 4° C. The protocol: Total proteins derived from human plasma (2 μl) were electrophoretically fractionated on 3-8% Tris-acetate gel (Novex, San Diego, Calif.) under non-reducing conditions. For the ligand blotting experiment, the proteins were transferred to a […] nitrocellulose membrane that was incubated for […] with 1% Nonidet P-40 (NP-40). Non-specific binding was further blocked with a 2 hr incubation in TBS containing 0.1% ATC. Incubations with 70 nM AM labeled with biotin, fluorescein, or DNP were carried out overnight at 4° C. in blocking buffer containing 0.1% TWEEN® 20 nonionic detergent. For biotin detection, the ligand blot was incubated with an avidin-biotin-peroxidase complex and the AEC reagent (Vector Laboratories, Inc., Burlingame, Calif.). For fluorescein and DNP, the ligand blots were incubated 1 hr at room temperature with rabbit anti-fluorescein or anti-DNP IgG, respectively, (1:1000 in incubation buffer; Molecular Probes, Inc.). Anti-rabbit antibody labeled with alkaline phosphatase (1:2000; Dako Corporation, Carpenteira, Calif.) was added for 0.5 hr, and the blot was developed using 4-nitro blue tetrazolium chloride/5-bromo-4-chloro-3-indolyl phosphate (NBT/BCIP) as the color-substrate solution (Roche Molecular Biochemicals, Indianapolis, Ind.).
Following this preincubation, labeled full-length AM was introduced and incubated overnight at 4° C.

For a further assay, the target named is factor H (Homo sapiens, UniProt P08603). The assay can be described thus: Cofactor activity of factor H: C3b cleavage with factor I. The format is biochemical. The following applies: 24 hr at 37° C. On the procedure: FIG. 10 illustrates the effect of AM on factor H activity. C3b (104 kDa α′ chain and 71 kDa β chain) was incubated 24 hr at 37° C. with factor H, factor I, and various peptides. Cleavage of the C3b α′ chain produced three bands with molecular weights 68 kD, 43 kD, and 42 kD.
To measure the cofactor activity of factor H, C3b (28 pmols) was incubated with factor I (0.16 pmols) and factor H (0.16 pmols) in the presence or absence of AM and related peptides for 24 hr at 37° C. in a final volume of 50 μl of PBS. Samples were fractionated by SDS-PAGE using 4-12% Tris-Bis gels (Novex) under reducing conditions, and stained with Coomassie Blue. C3b and factor I were purchased from Advanced Research Technologies (San Diego, Calif.). FIGS. 10A and 10B.

The conditions of assay [1]: intravenous injection; cited from earlier work.
Another assay relates to pancreatic islets. The assay can be described thus: Insulin secretion and cAMP in isolated pancreatic islets. The format is cell-based, rat. The conditions noted are these: islets with AM and/or factor H. The text has this:
A representative experiment is shown. Values for each treatment represent the mean and standard deviation of three independent wells. […] All values were statistically different (p<0.05) from the negative controls (first bar).
Pancreatic islets were isolated from 12 rats as previously described (A. Martínez et al., 2000, Endocrinology 141:406-411). Briefly, the heart of each rat was perfused with Hank's balanced salt solution (Sigma) to remove blood from pancreatic vessels. A small canula was inserted into the common biliary duct while the coledoco was sealed. Twenty to twenty-five milliliters of 0.4 mg/ml collagenase XI (Sigma) in Hank's solution was pumped through the canula until the pancreas was fully inflated. The pancreas was removed and incubated at 37° C. for 20 min. Following this, 20 ml of ice-cold Hank's solution was added and the pancreas dissociated by vigorous vortexing. After several washes, the islets were collected and distributed into 24 well plates using a dissecting microscope, with approximately 70 islets per well.
Freshly isolated islets were incubated in RPMI-1640 (Life Technologies) containing 5.6 mM glucose for 45 min at 37° C. […] Insulin and cAMP were measured by radioimmunoassay with commercial kits (Amersham, Arlington Heights, Ill.), according to the manufacturer's directions. […]

T1 sequence (P08603 19-1231): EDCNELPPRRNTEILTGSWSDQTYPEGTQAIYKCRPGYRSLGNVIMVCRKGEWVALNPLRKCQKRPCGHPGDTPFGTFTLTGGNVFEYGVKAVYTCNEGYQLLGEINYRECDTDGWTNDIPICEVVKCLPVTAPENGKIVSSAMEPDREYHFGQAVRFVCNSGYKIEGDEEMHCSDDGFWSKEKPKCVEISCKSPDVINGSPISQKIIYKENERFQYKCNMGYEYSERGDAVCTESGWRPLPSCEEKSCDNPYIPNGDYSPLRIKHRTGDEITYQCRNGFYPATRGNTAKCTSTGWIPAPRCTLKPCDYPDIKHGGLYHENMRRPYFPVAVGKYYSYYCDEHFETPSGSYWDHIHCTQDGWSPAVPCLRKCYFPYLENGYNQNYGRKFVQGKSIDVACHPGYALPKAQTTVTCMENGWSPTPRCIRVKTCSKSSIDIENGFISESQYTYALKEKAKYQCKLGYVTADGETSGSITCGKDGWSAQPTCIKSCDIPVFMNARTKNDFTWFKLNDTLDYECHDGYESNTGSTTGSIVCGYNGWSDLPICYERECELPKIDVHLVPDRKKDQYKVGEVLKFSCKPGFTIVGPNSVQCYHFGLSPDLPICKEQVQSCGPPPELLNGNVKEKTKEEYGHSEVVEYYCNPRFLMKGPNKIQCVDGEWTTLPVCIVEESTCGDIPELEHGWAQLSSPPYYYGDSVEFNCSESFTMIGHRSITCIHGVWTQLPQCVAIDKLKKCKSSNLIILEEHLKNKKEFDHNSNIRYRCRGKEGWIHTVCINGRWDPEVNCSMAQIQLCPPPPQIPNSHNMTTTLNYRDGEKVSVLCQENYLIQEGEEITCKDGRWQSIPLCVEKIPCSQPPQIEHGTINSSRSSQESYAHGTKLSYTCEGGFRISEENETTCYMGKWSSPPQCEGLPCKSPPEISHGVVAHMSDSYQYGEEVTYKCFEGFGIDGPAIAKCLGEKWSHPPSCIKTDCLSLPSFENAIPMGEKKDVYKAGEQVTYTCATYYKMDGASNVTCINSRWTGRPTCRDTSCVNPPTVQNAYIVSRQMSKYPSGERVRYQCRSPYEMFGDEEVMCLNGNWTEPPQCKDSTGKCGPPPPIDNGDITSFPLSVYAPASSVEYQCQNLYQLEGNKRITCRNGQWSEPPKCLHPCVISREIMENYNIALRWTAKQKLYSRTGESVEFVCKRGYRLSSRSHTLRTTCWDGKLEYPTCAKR
factor H, sequence (P08603 19-1231): as above

Turning to `CC[C@H](C)[C@H](NC(=O)[C@H](CCC(N)=O)NC(=O)[C@H](Cc1c[nH]cn1)NC(=O)[C@H](C)NC(=O)[C@H](CC(C)C)NC(=O)[C@H](CCCCN)NC(=O)[C@H](CCC(N)=O)NC(=O)[C@@H](NC(=O)[C@@H](NC(=O)[C@@H]1CSSC[C@H](NC(=O)CNC(=O)[C@H](Cc2ccccc2)NC(=O)[C@H](CO)NC(=O)[C@H](CCCNC(=N)N)NC(=O)[C@H](CC(C)C)NC(=O)CNC(=O)[C@H](CCC(N)=O)NC(=O)[C@H](Cc2ccccc2)NC(=O)[C@H](CC(N)=O)NC(=O)[C@H](CC(N)=O)NC(=O)[C@H](CCSC)NC(=O)[C@H](CO)NC(=O)[C@H](CCC(N)=O)NC(=O)[C@H](CCCNC(=N)N)NC(=O)[C@@H](N)Cc2ccc(O)cc2)C(=O)N[C@@H](CCCNC(=N)N)C(=O)N[C@@H](Cc2ccccc2)C(=O)NCC(=O)N[C@@H]([C@@H](C)O)C(=O)N1)[C@@H](C)O)C(C)C)C(=O)N[C@@H](Cc1ccc(O)cc1)C(=O)N[C@@H](CCC(N)=O)C(=O)N[C@@H](Cc1ccccc1)C(=O)N[C@H](C(=O)N[C@@H](CC(=O)O)C(=O)N[C@@H](CCCCN)C(=O)N[C@@H](CC(=O)O)C(=O)N[C@@H](CCCCN)C(=O)N[C@@H](CC(=O)O)C(=O)N[C@@H](CC(N)=O)C(=O)N[C@H](C(=O)N[C@@H](C)C(=O)N1CCC[C@H]1C(=O)N[C@@H](CCCNC(=N)N)C(=O)N[C@@H](CO)C(=O)N[C@@H](CCCCN)C(=O)N[C@H](C(=O)N[C@@H](CO)C(=O)N1CCC[C@H]1C(=O)N[C@@H](CCC(N)=O)C(=O)NCC(=O)N[C@@H](Cc1ccc(O)cc1)C(N)=O)[C@@H](C)CC)C(C)C)[C@@H](C)O` [AM, Adrenomedullin], the “Competition for labeled AM/AMBP-1 complex on ligand blot” value on AMBP-1 (factor H) was “able to dissociate the AM/AMBP-1 (AM/fH) complex”. For the same compound, at factor H, the “Effect on fH/fI-mediated cleavage of C3b” value is “enhances fH/fI-mediated cleavage of C3b”. Besides, in assay [1], the “Insulin and glucose in the bloodstream” value is given as “reduces the levels of insulin in the bloodstream with a concomitant increase in circulating glucose”. In addition, the cAMP in islets result in the assay on pancreatic islets is “concomitant elevations on cAMP”. For the same compound, the Insulin secretion entry with pancreatic islets (20.6 mM glucose, 45 min) is reported as “dose-dependent decreases in insulin secretion”.
